The target of series [1] is T1, Poly [ADP-ribose] polymerase 1 (Homo sapiens, UniProt P09874). The settings on record: dose 10.0 nM, time 45.0 min.
The target in series [2] is T2, Poly [ADP-ribose] polymerase tankyrase-2 (Homo sapiens) (UniProt Q9H2K2).
T2 sequence (whole entry): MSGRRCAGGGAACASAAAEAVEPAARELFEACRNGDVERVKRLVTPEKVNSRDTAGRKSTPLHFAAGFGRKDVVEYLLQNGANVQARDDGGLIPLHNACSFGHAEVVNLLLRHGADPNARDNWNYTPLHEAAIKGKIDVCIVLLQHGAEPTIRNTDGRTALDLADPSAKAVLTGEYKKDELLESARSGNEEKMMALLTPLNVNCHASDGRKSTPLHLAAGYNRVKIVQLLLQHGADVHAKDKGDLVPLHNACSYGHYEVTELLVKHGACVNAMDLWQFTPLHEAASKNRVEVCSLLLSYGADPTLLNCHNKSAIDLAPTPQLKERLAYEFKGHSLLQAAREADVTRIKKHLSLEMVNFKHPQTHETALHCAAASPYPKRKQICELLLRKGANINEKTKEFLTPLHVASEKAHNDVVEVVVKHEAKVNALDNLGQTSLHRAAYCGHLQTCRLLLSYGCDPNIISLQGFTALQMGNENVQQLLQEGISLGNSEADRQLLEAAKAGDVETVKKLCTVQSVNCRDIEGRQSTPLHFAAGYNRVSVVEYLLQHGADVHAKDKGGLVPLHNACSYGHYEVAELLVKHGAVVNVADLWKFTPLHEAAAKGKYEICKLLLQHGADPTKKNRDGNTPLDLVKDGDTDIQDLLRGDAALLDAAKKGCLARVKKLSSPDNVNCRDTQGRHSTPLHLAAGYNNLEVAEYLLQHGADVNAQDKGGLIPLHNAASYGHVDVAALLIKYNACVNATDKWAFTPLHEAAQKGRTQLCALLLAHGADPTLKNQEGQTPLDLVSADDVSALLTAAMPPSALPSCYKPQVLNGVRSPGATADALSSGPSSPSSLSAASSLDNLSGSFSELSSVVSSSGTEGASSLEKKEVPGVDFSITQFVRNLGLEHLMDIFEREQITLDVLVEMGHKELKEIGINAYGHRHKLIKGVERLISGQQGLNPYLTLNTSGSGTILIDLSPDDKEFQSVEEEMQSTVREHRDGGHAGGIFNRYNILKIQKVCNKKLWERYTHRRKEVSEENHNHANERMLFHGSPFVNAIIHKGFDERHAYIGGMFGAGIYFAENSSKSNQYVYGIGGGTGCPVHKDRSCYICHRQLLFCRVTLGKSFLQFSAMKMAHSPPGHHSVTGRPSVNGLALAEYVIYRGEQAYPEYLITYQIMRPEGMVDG
The note with it: dose 10.0 nM, time 1.0 hrs.

For series [3], the system named is MDA-MB-231. In words: Antiproliferative activity against human MDA-MB-231 cells assessed as inhibition of cell growth incubated for 7 days by MTT assay. It is filed as functional, cell-based. The settings on record: MDA-MB-231, 168 h.
Series [4] relates to HCT-116. The series is described as follows: Antiproliferative activity against human HCT-116 cells assessed as inhibition of cell growth incubated for 7 days by MTT assay. Format: functional, cell-based. The settings on record: HCT-116, 168 h.
For series [5], the system named is MDA-MB-468. In words: Antiproliferative activity against human MDA-MB-468 cells assessed as inhibition of cell growth incubated for 7 days by MTT assay. Format: functional, cell-based. The settings on record: MDA-MB-468, 168 h.
Series [6] in a line: Cytotoxicity against mouse AML12 cells assessed as reduction in cell viability incubated for 7 days by MTT assay. It is filed as toxicity, cell-based. The settings on record: time 7 day.
Series [7] deals with T1, Poly [ADP-ribose] polymerase 1. The series is described as follows: Inhibition of PARP-1 (unknown origin) using biotinylated NAD+ as substrate incubated for 45 mins in the presence of deoxy-oligonucleotide by microplate reader method relative to control.
Series [8] deals with T3, Poly [ADP-ribose] polymerase tankyrase-1 (Homo sapiens, UniProt O95271).
T3 sequence (O95271 whole entry): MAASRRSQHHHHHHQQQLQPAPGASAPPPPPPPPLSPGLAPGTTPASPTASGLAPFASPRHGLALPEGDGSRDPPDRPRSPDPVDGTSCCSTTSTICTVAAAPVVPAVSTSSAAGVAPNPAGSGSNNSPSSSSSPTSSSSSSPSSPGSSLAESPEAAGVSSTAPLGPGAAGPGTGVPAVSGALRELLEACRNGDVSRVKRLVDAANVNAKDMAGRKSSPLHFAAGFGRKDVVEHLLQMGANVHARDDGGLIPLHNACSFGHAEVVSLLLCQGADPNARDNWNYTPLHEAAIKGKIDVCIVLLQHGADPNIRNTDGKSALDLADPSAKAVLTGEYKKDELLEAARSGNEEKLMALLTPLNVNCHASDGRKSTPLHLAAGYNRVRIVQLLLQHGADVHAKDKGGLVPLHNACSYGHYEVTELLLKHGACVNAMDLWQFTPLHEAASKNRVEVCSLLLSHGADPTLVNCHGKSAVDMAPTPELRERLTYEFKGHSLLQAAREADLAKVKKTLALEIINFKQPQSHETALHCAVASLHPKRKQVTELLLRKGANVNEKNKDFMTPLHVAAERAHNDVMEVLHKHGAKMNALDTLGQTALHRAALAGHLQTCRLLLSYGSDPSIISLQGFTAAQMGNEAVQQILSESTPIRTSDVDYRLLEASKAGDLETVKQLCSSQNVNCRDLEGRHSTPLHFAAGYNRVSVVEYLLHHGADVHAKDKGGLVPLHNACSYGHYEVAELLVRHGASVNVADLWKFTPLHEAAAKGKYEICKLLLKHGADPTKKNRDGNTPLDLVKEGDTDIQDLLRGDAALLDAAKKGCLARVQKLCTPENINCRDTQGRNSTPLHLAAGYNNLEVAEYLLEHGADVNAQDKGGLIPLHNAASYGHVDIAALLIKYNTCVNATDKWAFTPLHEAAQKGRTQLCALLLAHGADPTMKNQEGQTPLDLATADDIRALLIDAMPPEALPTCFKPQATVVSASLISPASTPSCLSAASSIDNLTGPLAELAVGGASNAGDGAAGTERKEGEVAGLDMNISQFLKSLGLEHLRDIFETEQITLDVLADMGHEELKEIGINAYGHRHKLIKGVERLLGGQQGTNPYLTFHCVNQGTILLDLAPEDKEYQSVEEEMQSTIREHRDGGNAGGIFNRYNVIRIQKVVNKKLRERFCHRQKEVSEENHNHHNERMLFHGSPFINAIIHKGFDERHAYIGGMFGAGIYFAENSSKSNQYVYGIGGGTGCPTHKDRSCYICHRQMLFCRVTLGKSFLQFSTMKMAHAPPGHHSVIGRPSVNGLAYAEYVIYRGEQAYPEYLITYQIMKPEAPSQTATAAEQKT
In words: Inhibition of TNKS1 (unknown origin) using biotin-NAD+ as substrate incubated for 1 hr in the presence of deoxy-oligonucleotide by ELISA analysis relative to control.

Series [9] has as its target T4, Poly [ADP-ribose] polymerase tankyrase-2 (Homo sapiens, UniProt Q9H2K2).
T4 sequence (Q9H2K2 whole entry): T2 sequence (whole entry)
In words: Inhibition of TNKS2 (unknown origin) using biotin-NAD+ as substrate incubated for 1 hr in the presence of deoxy-oligonucleotide by ELISA analysis relative to control.

Series [10] deals with T5, Poly [ADP-ribose] polymerase tankyrase-1 (Homo sapiens) (UniProt O95271).
T5 sequence (whole entry): T3 sequence (O95271 whole entry)
The settings on record: dose 10.0 nM, time 1.0 hrs.

The subject of series [11] is HCT-116. The series is described as follows: Inhibition of Wnt/beta-Catenin signaling in human HCT-116 cells assessed as increase in axin2 levels at 10 uM by Western blot analysis. Format: cell-based.
The test system of series [12] is HCT-116. In words: Inhibition of Wnt/beta-Catenin signaling in human HCT-116 cells assessed as decrease in cyclin D1 levels at 10 uM by Western blot analysis. It is filed as cell-based.
For series [13], the system named is HCT-116. The series is described as follows: Inhibition of PARP in human HCT-116 cells assessed as decrease in pADPr levels at 10 uM by Western blot analysis. Format: cell-based.

Calls of active or inactive are those of the source. No cut-off for these calls is given here.

T1 sequence (P09874 whole entry): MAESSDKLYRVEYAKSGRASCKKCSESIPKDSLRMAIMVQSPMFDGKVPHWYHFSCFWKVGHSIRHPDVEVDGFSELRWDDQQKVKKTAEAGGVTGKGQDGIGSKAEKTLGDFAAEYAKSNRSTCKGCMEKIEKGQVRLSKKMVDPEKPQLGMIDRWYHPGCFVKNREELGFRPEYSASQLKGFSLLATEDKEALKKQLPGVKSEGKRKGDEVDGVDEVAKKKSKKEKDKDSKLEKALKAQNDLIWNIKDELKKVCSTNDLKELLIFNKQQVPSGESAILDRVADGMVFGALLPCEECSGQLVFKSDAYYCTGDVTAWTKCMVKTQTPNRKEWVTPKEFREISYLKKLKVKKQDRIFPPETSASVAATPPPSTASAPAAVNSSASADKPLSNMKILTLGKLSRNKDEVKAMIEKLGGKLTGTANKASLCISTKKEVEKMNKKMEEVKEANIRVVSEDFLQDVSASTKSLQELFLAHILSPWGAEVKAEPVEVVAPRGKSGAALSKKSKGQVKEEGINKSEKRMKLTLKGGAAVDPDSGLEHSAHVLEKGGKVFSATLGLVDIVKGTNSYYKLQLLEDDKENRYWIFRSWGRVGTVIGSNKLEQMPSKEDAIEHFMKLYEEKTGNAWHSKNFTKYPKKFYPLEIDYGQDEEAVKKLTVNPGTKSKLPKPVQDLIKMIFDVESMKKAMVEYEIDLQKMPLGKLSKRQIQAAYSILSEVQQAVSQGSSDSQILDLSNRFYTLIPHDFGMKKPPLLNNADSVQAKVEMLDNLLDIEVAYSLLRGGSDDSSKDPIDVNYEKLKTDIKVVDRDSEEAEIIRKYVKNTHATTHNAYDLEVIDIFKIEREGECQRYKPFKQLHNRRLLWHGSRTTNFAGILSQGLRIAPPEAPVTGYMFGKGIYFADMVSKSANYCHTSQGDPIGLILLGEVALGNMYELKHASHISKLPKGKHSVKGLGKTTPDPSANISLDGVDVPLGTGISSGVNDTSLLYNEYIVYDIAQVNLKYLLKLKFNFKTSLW

For the molecule `COc1ccc(NC(=O)c2ccc(NC(=O)C3CCN(C(=O)c4cc(Cc5n[nH]c(=O)c6ccccc56)ccc4F)CC3)cc2)cc1`, the inhibition in series [1] was found to be 97%; in [2], 11.5%.
Consider `COc1ccc(NC(=O)C2CCN(CC(=O)N3CCN(C(=O)c4cc(Cc5n[nH]c(=O)c6ccccc56)ccc4F)CC3)CC2)cc1`, for which the inhibition in series [1] is 98%.
For the molecule `O=C(Nc1ccc(F)cc1)c1ccc(NC(=O)N2CCN(C(=O)c3cc(Cc4n[nH]c(=O)c5ccccc45)ccc3F)CC2)cc1`, the IC50 stood at 960 nM in [3]; 510 nM in series [4]; 110 nM in [5]; 1.54 nM in series [7]; 214 nM in series [8]; 171 nM in series [9]. The CC50 at 168 h in series [6] came out at 37400 nM. Besides, the inhibition in [1] came out at 89%; in series [10], 14%; in series [2], 38%.
In the case of `O=C(Nc1cccc(F)c1)c1ccc(NC(=O)N2CCN(C(=O)c3cc(Cc4n[nH]c(=O)c5ccccc45)ccc3F)CC2)cc1`, the inhibition came out at 98% in series [1] and 26% in series [2].
On to `O=C(Nc1cccc2cccnc12)c1ccc(NC(=O)N2CCN(C(=O)c3cc(Cc4n[nH]c(=O)c5ccccc45)ccc3F)CC2)cc1`, for which the inhibition in series [1] was found to be 96%; in [2], 28%.
With `COc1ccc(NC(=O)c2ccc(NC(=O)N3CCN(C(=O)c4cc5cccc(C(N)=O)c5o4)CC3)cc2)cc1`, the figures for the inhibition in series [1], in series [10] and in series [2] were 51.5%, 22.5% and 22.5%, respectively.
With `Cc1ccccc1NC(=O)c1ccc(NC(=O)N2CCN(C(=O)c3cc(Cc4n[nH]c(=O)c5ccccc45)ccc3F)CC2)cc1`, the IC50 was 1290 nM in series [3]; 1040 nM in series [4]; 70 nM in series [5]; 1.62 nM in series [7]; 130 nM in series [8]; 110 nM in series [9]. In series [6], the cytotoxic concentration (CC50) at 168 h stood at 86700 nM. Besides, the inhibition in [1] was 99%; in series [10], 20%; in [2], 40%.
For `Oc1nc(-c2ccc(C(F)(F)F)cc2)nc2c1CSCC2`, the inhibition entry in [11], in series [12] and in series [13] was “Active” in each case. Further, in [10], the inhibition is 86%.
As to `Cc1ccc(NC(=O)c2ccc(NC(=O)N3CCN(C(=O)c4cc(Cc5n[nH]c(=O)c6ccccc56)ccc4F)CC3)cc2)cc1`, the IC50 in series [3] turned out to be 680 nM; in series [4], 700 nM; in [5], 40 nM; in series [7] it was 0.49 nM; in series [8], 39 nM; in series [9] it was 14 nM. The 50% cytotoxic concentration (CC50) at 168 h in series [6] is 49200 nM. Further, the results for the inhibition in series [1], in series [10] and in [2] were 99%, 13% and 48%, respectively.
Take `O=C(Nc1ccc(C(F)(F)F)cc1)c1ccc(NC(=O)N2CCN(C(=O)c3cc(Cc4n[nH]c(=O)c5ccccc45)ccc3F)CC2)cc1`: the IC50 in [7] turned out to be 4.08 nM; in series [8], 551 nM; in [9] it was 367 nM. The figures for the inhibition in series [1], in series [10] and in [2] were 98%, 12.5% and 28%, respectively.
For the molecule `Cc1cccc(NC(=O)c2ccc(NC(=O)N3CCN(C(=O)c4cc(Cc5n[nH]c(=O)c6ccccc56)ccc4F)CC3)cc2)c1`, the inhibition in series [1] came out at 99%; in series [2], 29.5%.
On to `O=C(Nc1ccccc1F)c1ccc(NC(=O)N2CCN(C(=O)c3cc(Cc4n[nH]c(=O)c5ccccc45)ccc3F)CC2)cc1`, for which the IC50 in series [7] was 0.98 nM; in [8], 506 nM; in series [9], 296 nM. For the same molecule, the inhibition in [1] is 99%; in [10], 10.5%; in series [2], 36%.

The record behind these values is ChEMBL document CHEMBL5120857, “Rational design, synthesis and biological evaluation of dual PARP-1/2 and TNKS1/2 inhibitors for cancer therapy” (Eur J Med Chem, 2022).
